Laboratory results published in US10688169B2 (priority 2015, dated 2020).
Entries after “also recorded” stand apart in the source; their conditions may differ.

System: ZIKA rabbits
Type: in vivo
Conditions: rabbits n=3 immunized with CRM197-23* in alhydrogel day 0 and 14; sera before and after immunization

For `C[C@@H]1O[C@@H](O[C@H]2C(C(=O)O)O[C@H](OC3C(O)[C@@H](O)[C@H](C)O[C@H]3OC3C(O)[C@@H](O)[C@H](C)O[C@H]3OC3C(O)[C@@H](O)[C@H](C)O[C@H]3OCCCCCN)C(O)[C@H]2O[C@@H]2OC(CO)[C@H](O)[C@H](O)C2O)C(O)C(O)[C@H]1O` (stereo partly drawn) [hexasaccharide 23*, 5-Amino-pentanyl α-L-rhamnopyranosyl-(1→4)-[P3-D-galactopyranosyl-(1→3)]-α-D-galactopyranosyluronic acid-(1→2)-α-L-rhamnopyranosyl-(1→2)-α-L-rhamnopyranosyl-(1→2)-α-L-rhamnopyranoside], the “immunogenicity and cross-reactivity of antibodies by glycan microarray” value was “specific antibodies are cross-reactive with native polysaccharide and other synthetic glycans; also recorded: immunogenic in rabbits and induces cross-reactive antibodies”.
